Data on one molecule can be found in patent publication US7763578B2, “Preparation of polymeric foams using hydrofluoroether nucleating agents” (3M Innovative Properties Company, priority 2004, dated 2010).

A short description of this data set: Acute toxicity (acute lethal concentration in air). The format is in vivo. As to conditions: 10,000 ppm is its saturated concentration in air at room temperature. From the text: In addition to providing useful performance as nucleating agents, the segregated ethers useful herein can offer additional important benefits in safety of use and in environmental compatibility (e.g., zero ozone depletion potential and low atmospheric lifetime). For example, 3M NOVEC Brand HFE-7500 has low acute toxicity (its acute lethal concentration is greater than 10,000 ppm which is its saturated concentration in air at room temperature). […] Further, polymeric foams produced in accordance with the invention have excellent thermal insulation properties.

SMILES strings stand for the structures.

Regarding `CCOC(F)(C(F)(F)C(F)(F)C(F)(F)F)C(F)(C(F)(F)F)C(F)(F)F` (stereo not shown) [3M NOVEC Brand HFE-7500, C3F7CF(OC2H5)CF(CF3)2], the acute lethal concentration result is “greater than 10,000 ppm”.
